From US20190185567A1, “COMBINATIONS FOR THE TREATMENT OF CANCER” (IGNYTA, INC., priority 2016, published 2019)

What was measured:
[1] = tested on: hematopoietic cell subsets; test: Hematopoietic cell subset mean percentages in tumor and spleen, subjective comparison to the Control Group; type: in vivo, Balb/c mice; conditions: once daily (Days 3-17); for CD45+ cells that expressed PD-L1, increase vs Control Group: spleen
4T1-Luc2-1A4 cells = test: 4T1-Luc2-1A4 mammary fat pad tumor model: tumor burden by caliper and BLI, metastases; type: in vivo, Balb/c mice; conditions: once daily for 15 days (Days 3-17); for Day 14 T/C (whole body BLI) / Day 14 median T/C (caliper measurements): p>0.05
Protocol: Female Envigo Balb/c mice (BALB/cAnNHsd) were used in this study. They were 6-7 weeks old on day 1 of the experiment. The animals were fed irradiated Harlan 2918.15 Rodent Diet and water ad libitum. Animals were housed in static cages with Bed-O'Cobs™ bedding inside Biobubble® Clean Rooms that provide H.E.P.A filtered air into the bubble environment at 100 complete air changes per hour. All treatments, imaging, body weight determinations, and tumor measurements were carried out in the bubble environment. The environment was controlled to a temperature range of 70°±2° F. and a humidity range of 30-70%.
4T1-Luc2-1A4 cells were obtained from PerkinElmer. They were grown in RPMI 1640 medium which was modified with 1% 100 mM Na pyruvate, 1% 1M HEPES buffer, 2.5 g/L glucose solution and supplemented with 10% non-heat-inactivated Fetal Bovine Serum (FBS) and 1% 100X Penicillin/Streptomycin/L-Glutamine (PSG). The growth environment was maintained in an incubator with a 5% CO2 atmosphere at 37° C. When expansion was complete, the cells (passage 5) were trypsinized using 0.25% trypsin-EDTA solution. Following cell detachment, the trypsin was inactivated by dilution with complete growth medium and any clumps of cells were separated by pipetting. The cells were centrifuged at 200 rcf for 8 minutes at 8° C., the supernatant was aspirated, and the pellet was re-suspended in cold Dulbecco's Phosphate Buffered Saline (DPBS) by pipetting. An aliquot of the homogeneous cell suspension was diluted in a trypan blue solution and counted using a Luna automated cell counter. The pre-implantation cell viability was 95%. The cell suspension was centrifuged at 200 rcf for 8 minutes at 8° C. The supernatant was aspirated and the cell pellet was re-suspended in cold 50% serum-free medium 50% Matrigel® to generate a final concentration of 1.0E+07 trypan-excluding cells/mL. The cell suspension was maintained on wet ice during implantation. Following implantation, an aliquot of the remaining cells was diluted with a trypan blue solution and counted to determine the post-implantation cell viability (95%).
Test animals were implanted subcutaneously into the mammary fat pad (MFP#4) on Day 0 with 5.0E+05 cells in 50 μL of serum free media in 50% Matrigel® using a 27-gauge needle and 1 mL syringe.
All mice were sorted into study groups based on body weight. The mice were distributed to ensure that the mean body weight for all groups was within 10% of the overall mean for the study population (group range 16.8-17.2 g). Treatment began on Day 3, prior to the tumors being palpable. All mice were dosed 0.2 mL/20 g. • Group 1: Vehicle Control (50% PEG400; 50% oleic acid) PO, once daily for 15 days (Days 3-17); • Group 2: N-[4-[(6,7-dimethoxy-4-quinolinyl)oxy]-3-fluorophenyl]-3-(4-fluorophenyl)-1,2,3,4-tetrahydro-1-(1-methylethyl)-2,4-dioxo-5-pyrimidinecarboxamide, 30 mg/kg PO, once daily for 15 days (Days 3-17); • Group 3: N-[4-[(6,7-dimethoxy-4-quinolinyl)oxy]-3-fluorophenyl]-3-(4-fluorophenyl)-1,2,3,4-tetrahydro-1-(1-methylethyl)-2,4-dioxo-5-pyrimidinecarboxamide, 10 mg/kg PO, once daily for 15 days (Days 3-17); • Group 4: N-[4-[(6,7-dimethoxy-4-quinolinyl)oxy]-3-fluorophenyl]-3-(4-fluorophenyl)-1,2,3,4-tetrahydro-1-(1-methylethyl)-2,4-dioxo-5-pyrimidinecarboxamide, 1 mg/kg PO, once daily for 15 days (Days 3-17); • Group 5: anti-CTLA-4 clone 9D9 antibody, 10 mg/kg IP, every third day for 2 treatments, then a 3 day rest for 2.5 weeks (Days 3, 6, 10, 13, 17) • Group 6: anti-CTLA-4 clone 9D9 antibody, 10 mg/kg IP, every third day for 2 treatments, then a 3 day rest for 2.5 weeks (Days 3, 6, 10, 13, 17), plus N-[4-[(6,7-dimethoxy-4-quinolinyl)oxy]-3-fluorophenyl]-3-(4-fluorophenyl)-1,2,3,4-tetrahydro-1-(1-methylethyl)-2,4-dioxo-5-pyrimidinecarboxamide, 30 mg/kg PO, once daily for 15 days (Days 3-17). […]

[2] = Assessment of side effects (tolerability, mortality, body weight); type: in vivo; conditions: once daily for 15 days (Days 3-17); for mean body weight loss: highest at study termination
Protocol: Animals were weighed on each day of treatment. Individual body weights were recorded three times weekly.
In this report, a dosage level is described as tolerated if treatment-related weight loss (during and two weeks after treatment) is <20% and mortality during this period in the absence of potentially lethal tumor burdens is <10%.
Upon death or euthanasia, all animals were necropsied to provide a general assessment of potential cause of death and perhaps target organs for toxicity. The presence or absence of metastases was also noted.

SMILES: COc1cc2nccc(Oc3ccc(NC(=O)c4cn(C(C)C)c(=O)n(-c5ccc(F)cc5)c4=O)cc3F)c2cc1OC [N-[4-[(6,7-dimethoxy-4-quinolinyl)oxy]-3-fluorophenyl]-3-(4-fluorophenyl)-1,2,3,4-tetrahydro-1-(1-methylethyl)-2,4-dioxo-5-pyrimidinecarboxamide]
- NK cells that produced IFN-γ upon ex-vivo re-stimulation, increase vs Control Group ([1]; NK cells isolated from spleens, 30 mg/kg PO): 22%
- NK cells that produced IFN-γ upon ex-vivo re-stimulation, increase vs Control Group ([1]; NK cells isolated from tumors, 30 mg/kg PO): 75%
- CD45+ cells that expressed PD-L1, increase vs Control Group ([1]; 10 mg/kg PO): 8%
- CD45+ cells that expressed PD-L1, increase vs Control Group ([1]; 30 mg/kg PO): 16%
- CD45+ cells expressing PD-L1, reduction vs Control Group ([1]; tumor, 1 mg/kg PO): 14%
- CD4+ T subset as a percent of total T cells, reduction vs Control Group ([1]; tumor, 10 mg/kg PO): 51%
- CD45+ cells expressing PD-L1, reduction vs Control Group ([1]; tumor, 10 mg/kg PO): 5%
- Treg subset as a percent of total T cells, reduction vs Control Group ([1]; tumor, 10 mg/kg PO): 61%
- Tumor-derived cells that expressed CD45, increase vs Control Group ([1]; tumor, 10 mg/kg PO): 18%
- CD4+ T subset as a percent of total T cells, reduction vs Control Group ([1]; tumor, 30 mg/kg PO): 54%
- G-MDSC subset, reduction vs Control Group ([1]; tumor, 30 mg/kg PO): 18%
- M2 MAC subset, increase vs Control Group ([1]; tumor, 30 mg/kg PO): 72%
- Treg subset as a percent of total T cells, reduction vs Control Group ([1]; tumor, 30 mg/kg PO): 69%
- Tumor-derived cells that expressed CD45, increase vs Control Group ([1]; tumor, 30 mg/kg PO): 14%
- incidence of ex vivo lung metastases (4T1-Luc2-1A4 cells; 1 mg/kg PO): 100%
- tumor free survivors (4T1-Luc2-1A4 cells; 1 mg/kg PO): 0%
- incidence of axillary lymph node metastases based on in vivo imaging (4T1-Luc2-1A4 cells; 1 mg/kg PO, 8/14): 57%
- Day 14 T/C (whole body BLI) (4T1-Luc2-1A4 cells; 1 mg/kg PO): 139%
- Day 14 median T/C (caliper measurements) (4T1-Luc2-1A4 cells; 1 mg/kg PO): 131%
- incidence of ex vivo lung metastases (4T1-Luc2-1A4 cells; 10 mg/kg PO): 100%
- tumor free survivors (4T1-Luc2-1A4 cells; 10 mg/kg PO): 0%
- incidence of axillary lymph node metastases based on in vivo imaging (4T1-Luc2-1A4 cells; 10 mg/kg PO, 2/14): 14%
- Day 14 T/C (whole body BLI) (4T1-Luc2-1A4 cells; 10 mg/kg PO): 133%
- Day 14 median T/C (caliper measurements) (4T1-Luc2-1A4 cells; 10 mg/kg PO): 100%
- incidence of ex vivo lung metastases (4T1-Luc2-1A4 cells; 30 mg/kg PO): 100%
- tumor free survivors (4T1-Luc2-1A4 cells; 30 mg/kg PO): no tumor free survivors
- incidence of axillary lymph node metastases based on in vivo imaging (4T1-Luc2-1A4 cells; 30 mg/kg PO, 3/14): 21%
- Day 14 T/C (whole body BLI) (4T1-Luc2-1A4 cells; 30 mg/kg PO): 54%
- Day 14 median T/C (caliper measurements) (4T1-Luc2-1A4 cells; 30 mg/kg PO): 55%
- tolerability ([2]; 1 mg/kg PO): well-tolerated
- treatment-related mortality ([2]; 1 mg/kg PO): no treatment-related mortality
- mean body weight loss ([2]; 1 mg/kg PO): 2.1%
- tolerability ([2]; 10 mg/kg PO): well-tolerated
- treatment-related mortality ([2]; 10 mg/kg PO): no treatment-related mortality
- mean body weight loss ([2]; 10 mg/kg PO): 4.2%
- body weight change ([2]; 30 mg/kg PO): body weight gain
- tolerability ([2]; 30 mg/kg PO): well-tolerated
- treatment-related mortality ([2]; 30 mg/kg PO): no treatment-related mortality
